Assay results: ChEMBL document CHEMBL4715688, “Discovery, Optimization, and in Vivo Evaluation of Benzimidazole Derivatives AM-8508 and AM-9635 as Potent and Selective PI3Kδ Inhibitors” (J Med Chem, 2016)
Values after ≈ are worked out from the molar mass of the structure shown.

Assays:
[1] = Aqueous solubility of the compound in PBS buffer at pH 7.4 incubated for 72 hrs by HPLC analysis; format: physicochemical
[2] = Metabolic stability in human liver microsomes assessed as metabolic turnover at 1 uM measured after 30 mins in presence of NADPH by LC/MS analysis; format: ADME, Microsome; conditions: read-out: Drug metabolism
[3] = Metabolic stability in rat liver microsomes assessed as metabolic turnover at 1 uM measured after 30 mins in presence of NADPH by LC/MS analysis; format: ADME, Microsome; conditions: read-out: Drug metabolism
[4] = Clearance in male Sprague-Dawley rat at 0.5 mg/kg, iv; format: ADME, organism-based; conditions: in vivo
[5] = Unbound clearance in male Sprague-Dawley rat at 0.5 mg/kg, iv; format: ADME, organism-based; conditions: in vivo
[6] = Oral bioavailability in male Sprague-Dawley rat at 2 mg/kg; format: ADME, organism-based; conditions: in vivo
[7] = Clearance in male Sprague-Dawley rat at 0.72 mg/kg, iv; format: ADME, organism-based; conditions: in vivo
[8] = Clearance in male Sprague-Dawley rat at […], iv; format: ADME, organism-based; conditions: in vivo, dose 0.71 mg/kg
[9] = Clearance in male Sprague-Dawley rat at 0.8 mg/kg, iv; format: ADME, organism-based; conditions: in vivo

| SMILES | solubility at 72 h [1] [µM] | metabolised at 0.5 h, 1 µM [2] [%] | metabolised at 0.5 h, 1 µM [3] [%] | clearance [4] [mL/min/kg] | CL free [5] [mL/min/kg] | bioavailability [6] [%] | clearance [7] [mL/min/kg] | clearance [8] [mL/min/kg] | clearance [9] [mL/min/kg] |
| --- | --- | --- | --- | --- | --- | --- | --- | --- | --- |
| C[C@H](Nc1ncnc(N)c1C#N)c1nc2ccc(F)cc2n1-c1cncc(F)c1 | 500 (≈ 196 µg/mL) | < 10 | < 10 | 16.5 | 51.7 | 41 |  |  |  |
| C[C@H](Nc1ncnc(N)c1C#N)c1nc2ccc(F)cc2n1-c1cccc(F)c1 | 401 (≈ 157 µg/mL) | 15 | 28 |  | 460 |  | 46 |  |  |
| C[C@H](Nc1ncnc(N)c1C#N)c1nc2ccc(F)cc2n1-c1cccc(S(C)(=O)=O)c1 | 500 (≈ 226 µg/mL) | < 10 | < 10 |  | 205 |  |  |  | 71.7 |
| C[C@H](Nc1ncnc(N)c1C#N)c1nc2ccc(F)cc2n1-c1cc(F)cc(F)c1 | 305 (≈ 125 µg/mL) | 11 | 30 | 44 | 338 |  |  |  |  |

Next, values leading:

| solubility at 72 h [1] [µM] | metabolised at 0.5 h, 1 µM [2] [%] | metabolised at 0.5 h, 1 µM [3] [%] | clearance [4] [mL/min/kg] | CL free [5] [mL/min/kg] | bioavailability [6] [%] | clearance [7] [mL/min/kg] | clearance [8] [mL/min/kg] | clearance [9] [mL/min/kg] | SMILES |
| --- | --- | --- | --- | --- | --- | --- | --- | --- | --- |
| 374 (≈ 140 µg/mL) | < 10 | 26 | 40.2 | 447 |  |  |  |  | C[C@H](Nc1ncnc(N)c1C#N)c1nc2ccc(F)cc2n1-c1ccccc1 |
| 474 (≈ 177 µg/mL) | < 10 | < 10 |  | 43.3 | 45 |  | 15.5 |  | C[C@H](Nc1ncnc(N)c1C#N)c1nc2ccc(F)cc2n1-c1cccnc1 |
| 353 (≈ 138 µg/mL) | < 10 | 22 | 29.7 | 300 |  |  |  |  | C[C@H](Nc1ncnc(N)c1C#N)c1nc2ccc(F)cc2n1-c1ccc(F)cc1 |
| 500 (≈ 187 µg/mL) | < 10 | < 10 | 16.2 | 73.3 | 58 |  |  |  | C[C@H](Nc1ncnc(N)c1C#N)c1nc2ccc(F)cc2n1-c1ccccn1 |
